Source: US6348571B1, “Corticotropin release inhibiting factor and methods of using same” (Northwestern University, priority 1994, dated 2002)
Ends that are not written are not given here.

What was measured:
[1] = system: SCW-induced inflammatory response; experiment: Thyroid status and SCW-induced inflammatory response in female rats; assay type: in vivo, rat
Excerpt: RA is an autoimmune disease characterized by chronic degradation of the joints resulting from inflammation of synovial membranes. SCW-induced inflammation in the autoimmune prone female Lewis rat is an accepted animal model for the study of RA. […] It is likely that increased thyroid activity decreases the susceptibility to inflammatory immune disease by increasing glucocorticoid levels. The discovery of CRIF encoded within the same precursor as TRH establishes a direct link between the HPA and thyroid axes. Thyroid hormones may play a fundamental role in regulating the HPA axis by modulation of levels of prepro-TRH mRNA.
To determine the role played by thyroid hormones and concomitant changes in the HPA axis in the development of SCW-induced inflammatory response, expression of genes which reflect the status of thyroid function (TRH), pituitary-adrenal activity (POMC) and inflammation (IL-1β and MIP-1α, a macrophage specific inflammatory protein) was measured. Adult female rats were fed a regular diet (control), or a regular diet plus 0.012% T4 (hyperthyroid) or 0.05% 6-propyl-thiouracil (PTU) supplied in the in drinking water (hypothyroid), for seven weeks. A preparation of SCW (20 μg/g of body weight) was administered intraperitoneally to the rats three days before decapitation. Anterior pituitary POMC, hypothalamic TRH and peritoneal macrophage IL-1β and MIP-1α mRNA levels were assessed by Northern blot hybridization analysis using specific cDNA probes. The levels of mRNA were normalized to the housekeeping gene, GAPD, and were quantified by image analysis densitometry. Plasma levels of TSH and CORT were determined by RIA.

At-20 cells = experiment: Inhibition of PMA- or forskolin-stimulated ACTH release in At-20 cells by small CRIF peptides; assay type: cell-based; conditions: PMA 100 nM, FIG. 18
Method: FIG. 19 is a graph and amino acid sequences [SEQ ID NOS:1, 6 and 5, resepctively], where the graph depicts the fact that forskolin-stimulated ACTH secretion is inhibited by peptides derived from prepro-TRH 178-199. The biological activity of small CRIF peptides was tested in vitro, using inhibition of ACTH release in At-20 cells as the bioassay. These peptides were tested in 2-7 independent experiments, where treatments were added in triplicate. Forskolin was used at a concentration of 20 μM, and PMA was used at a concentration of 100 nM.
CRIF peptides having either four contiguous amnino acids or nine contiguous amino acids positioned between the fourth and fifth TRH sequence in a rprepro-TRH polypeptide were prepared. These peptides are referred to herein as rprepro-TRH 196-199 (SEQ ID NO:5, having four contiguous amino acids) and rprepro-TRH 191-199 (SEQ ID NO:6, having nine contiguous amino acids). The CRIF activity of each of these peptides was assessed in vitro in a bioassay, wherein inhibition of ACTH release in At-20 cells was used as a measure of CRIF activity. Full length CRIF (rprepro-TRH 178-199) was used as a positive control. […] Thus, CRIF peptides having less than twenty two contiguous amino acids have CRIF activity.

F344XBN rats = experiment: Forced swim test after sub-acute icv administration; assay type: in vivo
Method: In FIG. 20 there is shown data which establish that prepro-TRH 191-199 decreased immobility in the forced swim test when the peptide was administered to a rat icv. In this experiment, adult male Sprague-Dawley or F1 Brown Norway/Fisher344 rats were used in these experiments. Rats were implanted with cannulae into the lateral ventricle as described previously (McGivern, 1997, J. Neurosci. 17:4886-4894). For the stereotaxic surgery, animals were anesthetized (ketamine, 50 mg/kg/xylazine, 8 mg/kg) and positioned in a stereotaxic head fame. At the end of behavioral testing, placements will be verified by anesthetizing the animal with pentobarbital (45 mg/kg) and injecting 1 μl tryphan blue staining solution through the cannulae just prior to decapitation. Only data from animals with correct placement were included in the analysis.
At least 7 days after the stereotaxic surgery, animals were subjected to an initial 15 minute swim pretest, followed by a 5-minute swim test 24 hours later. Rats received two injections of sterile vehicle or prepro-TRH 178-199 (1.5, 3.0, 6.0 or 12.0 μg/kg; 0.6, 1.2., 2.3 and 4.6 nmol/kg) in […] between the pretest and the test. 15 minutes after the initial (pre)-swim and 5 minutes before the test swim. In the case of prepro-TRH 191-199 administration, the C-terminal peptide was administered in this sub-acute fashion at 2.2 μg/kg (2.3 nmol/kg) dose, which is equivalent to 6 μg/kg prepro-TRH 178-199. Water was chosen instead of saline or artificial CSF for solubility reasons: the peptide dissolved much better in sterile, pyrogen-free water and animals tolerated this vehicle very well even after 14 days of daily administration. F344XBN rats were used. Prepro-TRH 191-199 had effects very similar to those of the full-length peptide.

rats = experiment: Side effects in rats treated in vivo with CRIF
[2] = system: primary anterior pituitary cells; experiment: Bioassay of synthetic prepro-TRH peptides: ACTH secretion in primary anterior pituitary cells; assay type: cell-based; conditions: primary pituitary cell cultures, 10 nM CRF
Method: (§1) The bioactivity of various synthetic peptides corresponding to the various prepro-TRH intervening sequences was assessed in AtT-20 or primary anterior pituitary cells. All experiments were conducted in triplicate. To perform this assay, AtT-20 cells were plated at a density of 10^5 cells/well in 24 well plates. After 24 hours, the medium was removed and replaced with steroid-free medium containing the test peptide at a concentration of 10^−10-10^−6 M. When primary pituitary cultures were used, freshly dispersed anterior pituitary cells (1-2×10^5 cells/well) were plated in 24 well plates for 48 hours using steroid free media. Again, after 24 hours, the medium was removed and replaced with steroid-free medium containing the test peptide at a concentration of 10^−10-10^−6 M. The supernatants from the cells were harvested after 4 hours of incubation under unstimulated or CRF-stimulated conditions. AtT-20 cells were stimulated with 50 nM CRF and primary pituitary cells were stimulated with 10 nM CRF. The supernatants were centrifuged and stored at −80° C.
ACTH-like immunoreactivity was measured using an antiserum which reacts with amino acids 1-24 and 1-39 on ACTH on an equimolar basis. The assay is described in Redei et al. (1988, Endocrinology, 123:2736-2743). For these studies, ^125I-ACTH 1-39 was used as a tracer. This assay is capable of detecting as little as 3 pg ACTH/tube. […]

AtT-20 cells = experiment: Bioassay of synthetic prepro-TRH peptides: ACTH secretion in AtT-20 cells; assay type: cell-based, mouse; conditions: peptide 10^-10-10^-6 M, 4 hours, 50 nM CRF
Method: as §1
ACTH-like immunoreactivity was measured using an antiserum which reacts with amino acids 1-24 and 1-39 on ACTH on an equimolar basis. The assay is described in Redei et al. (1988, Endocrinology, 123:2736-2743). For these studies, ^125I-ACTH 1-39 was used as a tracer. This assay is capable of detecting as little as 3 pg ACTH/tube. Intraassay and interassay coefficients of variation were 6.4% and 11.6% respectively.
Peptides prepro-TRH 115-151, 160-169 and 178-199 were obtained from Penninsula Lab Inc. (Belmont, Calif.); peptides prepro-TRH 53-74, 83-106 and TRH precursor peptide (Lys-Arg-Gln-His-Pro-Gly-Lys-Arg) were obtained from American Peptide Co. Inc. (Sunnyvale, CA); and, peptides prepro-TRH 25-50, 208-220 and 230-255 were obtained from Quality Control QCB, Hopkington, Mass.

## CCCc1cc(=O)[nH]c(=S)[nH]1 [PTU, 6-propyl-thiouracil]
[1]; SCW 20 μg/g ip, SCW-administered control rats 17-fold
  increase in macrophage MIP-1α mRNA levels on SCW administration: 22 fold
[1]; altered thyroid status, FIG. 12E
  plasma CORT levels: significant decrease
[1]; hypothyroid group, 0.05% in drinking water, seven weeks, p<0.01
  increase of hypothalamic TRH mRNA levels: 52%

## EGEGVLMPE [prepro-TRH 191-199, CRIF peptide having nine contiguous amino acids]
At-20 cells
  PMA-stimulated ACTH secretion: capable of inhibiting ACTH secretion at levels which are comparable to those achieved using full length CRIF
F344XBN rats; icv sub-acute, equimolar 2.3 nmol/kg (2.2 μg/kg 191-199; 6 μg/kg 178-199), p<0.001
  floating in the forced swim test: significantly decreased
F344XBN rats; icv sub-acute, equimolar 2.3 nmol/kg (2.2 μg/kg 191-199; 6 μg/kg 178-199), p<0.01
  climbing in the forced swim test: increased
F344XBN rats; icv, rat
  immobility in the forced swim test: decreased

## FIDPELQRSWEEKEGEGVLMPE [prepro-TRH 178-199]
rats
  side effects associated with administration: no discernible deleterious side effects

## KRQHPGKR [TRH precursor peptide]
[2]
  CRIF activity (ACTH secretion): only peptide 178-199 exhibited CRIF activity

## Leu-Met-Pro-Glu (LMPE; printed: Leu-Met-Pro-Glu) [prepro-TRH 196-199, CRIF peptide having four contiguous amino acids]
At-20 cells
  PMA-stimulated ACTH secretion: capable of inhibiting ACTH secretion at levels which are comparable to those achieved using full length CRIF

## prepro-TRH 25-50: intervening peptide of rat prepro-TRH, amino acids 25-50 (LPEAAQEEGAVTPDLPGLENVQVRPE; UniProt P01150 25-50, looked up, fragment)
AtT-20 cells
  bioactivity: basal and CRF-stimulated ACTH secretion: only the peptide comprising amino acids 178-199 exhibited bioactivity

## prepro-TRH 53-74: intervening peptide of rat prepro-TRH, amino acids 53-74 (FLWKDLQRVRGDLGAALDSWIT; UniProt P01150 53-74, looked up, fragment)
AtT-20 cells
  bioactivity: basal and CRF-stimulated ACTH secretion: only the peptide comprising amino acids 178-199 exhibited bioactivity

## prepro-TRH 83-106: intervening peptide of rat prepro-TRH, amino acids 83-106 (EEEEKDIEAEERGDLGEGGAWRLH; UniProt P01150 83-106, looked up, fragment)
AtT-20 cells
  bioactivity: basal and CRF-stimulated ACTH secretion: only the peptide comprising amino acids 178-199 exhibited bioactivity

## prepro-TRH 115-151: intervening peptide of rat prepro-TRH, amino acids 115-151 (ANQDKYSWADEEDSDWMPRSWLPDFFLDSWFSDVPQV; UniProt P01150 115-151, looked up, fragment)
AtT-20 cells
  bioactivity: basal and CRF-stimulated ACTH secretion: only the peptide comprising amino acids 178-199 exhibited bioactivity

## prepro-TRH 160-169: intervening peptide of rat prepro-TRH, amino acids 160-169 (SFPWMESDVT; UniProt P01150 160-169, looked up, fragment)
AtT-20 cells
  bioactivity: basal and CRF-stimulated ACTH secretion: only the peptide comprising amino acids 178-199 exhibited bioactivity

## prepro-TRH 208-220: intervening peptide of rat prepro-TRH, amino acids 208-220 (ALGHPCGPQGTCG; UniProt P01150 208-220, looked up, fragment)
AtT-20 cells
  bioactivity: basal and CRF-stimulated ACTH secretion: only the peptide comprising amino acids 178-199 exhibited bioactivity

## prepro-TRH 230-255: intervening peptide of rat prepro-TRH, amino acids 230-255 (DLSRGQETLVKQSPQVEPWDKEPLEE; UniProt P01150 230-255, looked up, fragment)
AtT-20 cells
  bioactivity: basal and CRF-stimulated ACTH secretion: only the peptide comprising amino acids 178-199 exhibited bioactivity
[2]
  CRIF activity (ACTH secretion): only peptide 178-199 exhibited CRIF activity
